The text below walks through data of patent US8975265B2, “Substituted imidazo[1,2-a]pyrimidines and —pyridines” (Bayer Intellectual Property GmbH, priority 2010, dated 2015).

Assay [1] addresses His-tagged human recombinant kinase full-length Akt1 (Homo sapiens (Human), UniProt P31749). Put plainly: Akt1 kinase assay (TR-FRET). The settings on record: 10 μM ATP; read-out: Akt1, median IC50. Format: biochemical. In outline:
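Full-length His-tagged Akt1 (about 0.05 ng/μl final) preincubated 15 min at 22 °C with compound in 50 mM TRIS/HCl pH 7.5, 5 mM MgCl2, 1 mM DTT, 0.02% Triton X-100; biotinylated peptide substrate. Phosphopeptide detected by TR-FRET (Eu-chelate antibody to streptavidin-XL665) after 1 h at 22 °C.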
(Time-resolved FRET reads energy transfer from a long-lived donor to a nearby acceptor.)

The test system of assay [2] is p-AKT1/2/3-S473 in KPL4 breast tumour cell line. Description: Cellular p-AKT1/2/3-S473 assay. Format: cell-based. The settings on record: KPL4 breast tumour cell line, 2 hours treatment; read-out: pAKT-S743 median IC50. In outline:
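KPL4 cells (PIK3CA H1047R, HER2 0/E, hormone independent) were seeded at 60–80% confluency, cultured overnight, then exposed to compound for 2 h at 37 °C. pAKT-S473 and total AKT measured together by MSD Akt Duplex on 20 µg extract; pAKT expressed as % of total AKT, at least duplicate with independent repeats.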

The test system of assay [3] is p-4E-BP1-T70 in KPL4 breast tumour cell line. Description: Cellular p-4E-BP1-T70 assay. Type of assay: cell-based. The settings on record: 2 hours treatment, read-out: P4EBP1-T70 median IC50. The protocol:
The molecular mechanism of action was investigated in a set of experiments to assess the inhibition of the PI3K-AKT-mTOR pathway in responsive cell lines such as KPL4 breast tumour cell line (PIK3CAH1047R, HER20/E and hormone independent). The phospho-substrates of PI3K-AKT-mTOR axis were used as the read-outs to reflect pathway inhibition. Cells were seeded at 60-80% confluency per well in 96-well cell culture plates. After overnight incubation at 37° C. 5% CO2, cells were treated with compounds and vehicle at 37° C. for 2 hours. Thereafter, cells were lysed in 150 μl lysis buffer and the levels of phospho-AKT at T308 and S473 and p-4E-BP1 at T70 sites were determined with the corresponding AlphaScreen® SureFire® assay kits (Perkin Elmer: 4E-BP1 Assay Kit Cat # TRG4E2S10K; Akt 1/2/3 p-Ser 473 #TGRA4S500 and Akt 1/2/3 p-Thr 308 #TGRA3S500 as well as IgG detection Kit #6760617M) as described in the manuals. All measurements where at least done in duplicates and confirmed by independent repetition.

Assay [4] relates to KPL-4 breast cancer cell line. Put plainly: Tumor cell proliferation assay (CellTiter-Glo, 72 h), KPL-4. Type of assay: cell-based. The settings on record: KPL4, 72h drug exposure. Summed up:
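KPL-4 cells were treated with compound for 72 h at 37°C. Viability was measured as ATP by CellTiter-Glo luminescence, with a separate t=0 plate read after overnight attachment. A reference compound was run as standard.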

For the next assay, the system named is MCF7. Put plainly: Tumor cell proliferation assay (CellTiter-Glo, 72 h), MCF7. Type of assay: cell-based. The settings on record: Homo sapiens, 72h drug exposure. How it is done:
Compounds were tested in a cell-based assay that measures the capacity of the compounds to inhibit tumour cell proliferation following a 72h drug exposure. Cell viability is determined using CellTiter-Glow® (CTG, Promega, cat# G7571/2/3). The CellTiter-Glo® Luminescent Cell Viability Assay is a homogeneous method to determine the number of viable cells in culture. Detection is based on using the luciferase reaction to measure the amount of ATP from viable cells. The amount of ATP in cells correlates with cell viability. Within minutes after a loss of membrane integrity, cells lose the ability to synthesize ATP, and endogenous ATPases destroy any remaining ATP; thus the levels of ATP fall precipitously.
Cells were plated at 3000-5000 cells/well (depending on the cell lines) in 90 μL growth medium on MTPs (Corning; #3603, black plate, clear flat bottom). For each cell line assayed, cells were plated onto a separate plate for determination of […] at t=0 hour and t=72 hour time points. Following overnight incubation at 37° C., chemiluminescence values for the t=0 samples were determined after adding 10 μl medium and 100 μl CTG solution according to manufacture protocol. Plates for the t=72 hour time points were treated with compounds diluted into growth medium at ten times final concentration added in 10 μL to the cell culture plate. Cells were then incubated for 72 hours at 37° C. Chemiluminescence values for the t=72 hour samples were determined. […] Experiments were controlled using a reference compound as standard.
A general note: In ATP-based viability assays light output follows the ATP content of the culture.

Each structure is given as a SMILES string.

Sequence of His-tagged human recombinant kinase full-length Akt1 (P31749 whole entry): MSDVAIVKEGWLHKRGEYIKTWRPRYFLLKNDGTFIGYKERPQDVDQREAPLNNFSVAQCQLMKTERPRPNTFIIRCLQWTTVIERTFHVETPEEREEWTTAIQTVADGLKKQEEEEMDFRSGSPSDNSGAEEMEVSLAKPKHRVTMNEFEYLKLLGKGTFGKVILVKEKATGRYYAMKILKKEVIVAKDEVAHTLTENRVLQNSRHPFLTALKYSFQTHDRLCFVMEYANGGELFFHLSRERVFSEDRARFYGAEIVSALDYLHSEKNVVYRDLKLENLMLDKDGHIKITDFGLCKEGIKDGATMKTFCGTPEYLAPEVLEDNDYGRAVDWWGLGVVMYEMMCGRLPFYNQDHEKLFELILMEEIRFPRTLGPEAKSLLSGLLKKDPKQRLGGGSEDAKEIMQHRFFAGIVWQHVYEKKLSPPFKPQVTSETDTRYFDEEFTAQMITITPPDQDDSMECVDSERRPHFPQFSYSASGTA

In the case of `N#Cc1ccc2nc(-c3ccc(C4(N)CCC4)cc3)c(-c3ccccc3)n2c1` [Example 1-10], the 50% inhibitory concentration (IC50) (commonly the concentration that inhibits the measured activity by half) in assay [1] was 0.287 µM; in assay [2], 0.138 µM; in assay [3] it was 2.03 µM; in assay [4] it was 1.6 µM.

`COC(=O)c1cc(OC)c2nc(-c3ccc(C4(N)CCC4)cc3)c(-c3ccccc3)n2c1` [Example 1-12]: the IC50 was found to be 0.276 µM in assay [2], 0.8 µM in the assay with MCF7 and 8.3 µM in assay [4].

Consider `NC1(c2ccc(-c3nc4ccc(-n5cccn5)cn4c3-c3ccccc3)cc2)CCC1` [Example 1-16], for which the IC50 in assay [2] is 0.359 µM; in the assay with MCF7, 1.8 µM; in assay [4], 2 µM.

On to `Cc1ccc2nc(-c3ccc(C4(N)CCC4)cc3)c(-c3ccccc3)n2c1` [Example 2-7], for which the IC50 in assay [1] turned out to be 0.203 µM; in assay [2], 0.487 µM; in assay [3], 3.96 µM; in assay [4], 1.9 µM.

As to `NC1(c2ccc(-c3nc4c(-c5ccc(F)cc5)cccn4c3-c3ccccc3)cc2)CCC1` [Example 2-68, 1-{4-[8-(4-fluorophenyl)-3-phenyl-imidazo[1,2-a]pyridin-2-yl]-phenyl}-cyclobutylamine], the IC50 in assay [1] stood at 0.308 µM; in assay [2], 0.748 µM; in the assay with MCF7 it was 1.9 µM; in assay [4], 3.1 µM.

Consider `NC1(c2ccc(-c3nc4c(-c5cccc(F)c5)cccn4c3-c3ccccc3)cc2)CCC1` [Example 2-69], for which the 50% inhibitory concentration (IC50) came out at 0.208 µM in assay [1], 0.796 µM in assay [2], 1.8 µM in the assay on MCF7 and 2.9 µM in assay [4].

With `COc1cncc(-c2cccn3c(-c4ccccc4)c(-c4ccc(C5(N)CCC5)cc4)nc23)c1` [Example 2-70], the half-maximal inhibitory concentration (IC50) in assay [2] came to 0.298 µM; in the assay on MCF7, 1.6 µM; in assay [4], 2 µM.

Take `NC1(c2ccc(-c3nc4c(-c5ccn[nH]5)cccn4c3-c3ccccc3)cc2)CCC1` [Example 2-71]: the IC50 in assay [1] came out at 0.064 µM; in assay [2] it was 0.153 µM; in the assay on MCF7 it was 1.6 µM; in assay [4], 1.9 µM.

As to `NC1(c2ccc(-c3nc4c(-c5ccc6cn[nH]c6c5)cccn4c3-c3ccccc3)cc2)CCC1` [Example 2-72], the IC50 in assay [1] is 0.39 µM; in assay [2], 0.814 µM; with MCF7, 1.7 µM; in assay [4], 2.1 µM.

As for `Cc1ccn2c(-c3ccccc3)c(-c3ccc(C4(N)CCC4)cc3)nc2c1Cl` [Example 2-74], the IC50 in assay [2] came out at 0.251 µM; in assay [3], 1.4 µM; in the assay on MCF7 it was 1.6 µM; in assay [4], 1.4 µM.

For `Cc1cc(Cl)cn2c(-c3ccccc3)c(-c3ccc(C4(N)CCC4)cc3)nc12` [Example 2-76], the half-maximal inhibitory concentration (IC50) stood at 0.582 µM in assay [2], 1.96 µM in assay [3], 1.7 µM in the assay with MCF7 and 2.1 µM in assay [4].

As for `CCOC(=O)c1cc(Br)c2nc(-c3ccc(C4(N)CCC4)cc3)c(-c3ccccc3)n2c1` [Example 2-77], the IC50 stood at 0.474 µM in assay [2], 1.72 µM in assay [3], 1.7 µM with MCF7 and 8.1 µM in assay [4].

On to `NC1(c2ccc(-c3nc4c(Cl)cc(Cl)cn4c3-c3ccccc3)cc2)CCC1` [Example 2-78], for which the IC50 was found to be 0.1 µM in assay [2], 1.58 µM in assay [3], 1.1 µM in the assay with MCF7 and 1.9 µM in assay [4].

Consider `COc1ccn2c(-c3ccccc3)c(-c3ccc(C4(N)CCC4)cc3)nc2c1C#N` [Example 2-79], for which the concentration for half-maximal inhibition (IC50) amounted to 0.048 µM in assay [2], 0.37 µM in assay [3], 0.5 µM in the assay with MCF7 and 0.9 µM in assay [4].

On to `NC1(c2ccc(-c3nc4cc(Cl)c(Cl)cn4c3-c3ccccc3)cc2)CCC1` [Example 2-80], for which the IC50 came to 0.912 µM in assay [2], 1.85 µM in assay [3], 1.8 µM in the assay with MCF7 and 2 µM in assay [4].

In the case of `Cc1cc(Br)cn2c(-c3ccccc3)c(-c3ccc(C4(N)CCC4)cc3)nc12` [Example 2-82], the IC50 turned out to be 1.02 µM in assay [2], 3.28 µM in assay [3], 1.7 µM in the assay on MCF7 and 2.1 µM in assay [4].

Turning to `Cc1cc(Br)c2nc(-c3ccc(C4(N)CCC4)cc3)c(-c3ccccc3)n2c1` [Example 2-83], the half-inhibitory concentration (IC50) in assay [2] was 0.189 µM; in assay [3], 0.615 µM; in the assay with MCF7, 2 µM; in assay [4] it was 1.8 µM.

With `Cc1c(Br)cn2c(-c3ccccc3)c(-c3ccc(C4(N)CCC4)cc3)nc2c1C` [Example 2-84], the IC50 in assay [2] was determined as 1.34 µM; in assay [3], 3.14 µM; in the assay with MCF7 it was 1.6 µM; in assay [4], 2.2 µM.

Consider `NC1(c2ccc(-c3nc4c(Br)cc(C(F)(F)F)cn4c3-c3ccccc3)cc2)CCC1` [Example 2-86], for which the IC50 is 1.2 µM in assay [2], 2.51 µM in assay [3], 1.8 µM in the assay on MCF7 and 2 µM in assay [4].

Consider `CC(=O)c1ccn2c(-c3ccccc3)c(-c3ccc(C4(N)CCC4)cc3)nc2c1` [Example 2-128], for which the concentration for half-maximal inhibition (IC50) in assay [1] worked out at 0.175 µM; in assay [2], 0.471 µM; in the assay with MCF7 it was 1.7 µM; in assay [4], 4.4 µM.

Take `NC1(c2ccc(-c3nc4ccc(-c5ncc[nH]5)cn4c3-c3ccccc3)cc2)CCC1` [Example 2-130]: the 50% inhibitory concentration (IC50) in assay [1] stood at 0.321 µM; in assay [2], 0.731 µM; in the assay with MCF7, 1.8 µM; in assay [4], 8.4 µM.

For `CC(=O)Nc1ccn2c(-c3ccccc3)c(-c3ccc(C4(N)CCC4)cc3)nc2c1` [Example 2-152], the half-maximal inhibitory concentration (IC50) in assay [1] worked out at 0.554 µM; in assay [2], 0.185 µM; in the assay with MCF7 it was 1.7 µM; in assay [4], 1.8 µM.

`NC(=O)Nc1ccn2c(-c3ccccc3)c(-c3ccc(C4(N)CCC4)cc3)nc2c1` [Example 2-153]: the IC50 amounted to 0.457 µM in assay [1], 1.64 µM in assay [2], 0.4 µM in the assay on MCF7 and 10 µM in assay [4].

Consider `CON(C)C(=O)c1ccn2c(-c3ccccc3)c(-c3ccc(C4(N)CCC4)cc3)nc2c1` [Example 2-154], for which the IC50 was determined as 2.15 µM in assay [1], 0.72 µM in assay [2], 1.7 µM in the assay with MCF7 and 7.5 µM in assay [4].

Regarding `NC(=O)Nc1ccc2nc(-c3ccc(C4(N)CCC4)cc3)c(-c3ccccc3)n2c1` [Example 2-157], the 50% inhibitory concentration (IC50) in assay [2] is 0.965 µM; with MCF7 it was 1.1 µM; in assay [4], 10 µM.

With `CNC(=O)Nc1ccc2nc(-c3ccc(C4(N)CCC4)cc3)c(-c3ccccc3)n2c1` [Example 2-158], the IC50 in assay [1] amounted to 0.327 µM; in assay [2], 0.384 µM; in the assay on MCF7, 1.7 µM; in assay [4], 4.7 µM.

For the compound `COc1cc(-c2cn[nH]c2)cn2c(-c3ccccc3)c(-c3ccc(C4(N)CCC4)cc3)nc12` [Example 13-0, 1-{4-[8-methoxy-3-phenyl-6-(1H-pyrazol-4-yl)-imidazo[1,2-a]pyridin-2-yl]-phenyl}-cyclobutylamine], the IC50 in assay [1] is 0.081 µM; in assay [2], 0.089 µM; in the assay on MCF7 it was 0.9 µM; in assay [4], 1.7 µM.

Turning to `N#Cc1cc(Cl)c2nc(-c3ccc(C4(N)CCC4)cc3)c(-c3ccccc3)n2c1` [Example 15-0, 2-[4-(1-aminocyclobutyl)phenyl]-8-chloro-3-phenylimidazo[1,2-a]pyridine-6-carbonitrile], the concentration for half-maximal inhibition (IC50) in assay [1] amounted to 0.141 µM; in assay [2], 0.03 µM; in the assay on MCF7, 0.6 µM; in assay [4], 1.3 µM.
